# Laboratory results published in patent publication US12251411B2, “Methods of treating endometrial cancer using hemp extract” (Ecofibre USA Inc., priority 2021, dated 2025).
# Like-named read-outs stand apart in the source and are kept apart here.
# Legend:
# P-glycoprotein = P-glycoprotein (Homo sapiens, UniProt P08183); settings: in vitro; cited from earlier work
# [1] = cited from earlier work
# [2] = cited from earlier work; remark: listed apart in the source
# CYP2C19 = CYP2C19 (Homo sapiens, UniProt P33261); settings: in vitro; cited from earlier work
# CYP2C19, sequence (P33261 whole entry, species assumed): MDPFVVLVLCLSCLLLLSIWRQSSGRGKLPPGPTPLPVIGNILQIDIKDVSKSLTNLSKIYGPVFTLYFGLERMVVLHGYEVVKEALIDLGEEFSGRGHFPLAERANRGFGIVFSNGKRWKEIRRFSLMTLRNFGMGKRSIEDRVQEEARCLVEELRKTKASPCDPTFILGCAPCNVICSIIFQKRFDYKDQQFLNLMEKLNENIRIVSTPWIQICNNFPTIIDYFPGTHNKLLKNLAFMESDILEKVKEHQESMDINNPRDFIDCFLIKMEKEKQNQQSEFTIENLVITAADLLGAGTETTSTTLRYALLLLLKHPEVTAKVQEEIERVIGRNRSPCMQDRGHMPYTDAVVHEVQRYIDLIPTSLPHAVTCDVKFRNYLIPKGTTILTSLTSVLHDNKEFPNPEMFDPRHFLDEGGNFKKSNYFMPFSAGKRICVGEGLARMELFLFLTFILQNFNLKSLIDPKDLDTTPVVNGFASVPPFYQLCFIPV
# [3] = tested on: endometrial cancer patient derived organoids; assay: Viability of patient-derived endometrial cancer organoids treated with cannabis extracts (CellTiter-Glo); settings: for IC50: Homo sapiens; for viable organoids in words: 7 and 10 μg/mL
# Protocol: For this set of experiments, we obtained tissue samples from a new set of 12 patients, each having grade 1, grade 2, or grade 3 endometrial cancer. Cells from these patients were prepared as described in the Methods section below.
# (§1) Individual patient cell organoids were cultured separately in different plates.
# (§2) The same IC50 dose was given with each incremental dose of chemotherapeutic agent.
# [4] = tested on: patient derived endometrial cancer tumors; assay: Patient-derived xenograft mice: change in endometrial cancer tumor volume with cannabis extracts alone; assay type: in vivo; settings: for decrease in average tumor volume vs day 0: day 10
# Protocol: Generally, EC stem cells from the same patients that participated in the organoid studies of FIG. 7, were injected into the mice, and allowed to grow. After tumors reached a certain size, the mice were either injected (3 times/week) with the extract-delivery vehicle or with the particular cannabis extract. After a certain amount of time elapsed, tumor size was measured. The details regarding patient-derived xenograft methodology and experimental protocol are provided in the Methods section.
# The % change is an average number taken from tumor volumes of three mice compared to the starting average tumor volume on day 0 of treatment. Change can either be positive (tumor increases in size) or negative (tumor decreases in size).
# (§3) Human patient cells from endometrial cancer were injected subcutaneously into female NOD/SCID gamma mice after resuspending in 100 μL solution. […] Tumor size was measured before treatment, followed by twice a week measurements. All treatment group mice were kept alive for up to 10 weeks after drug injection or until the tumor volume grows bigger than 2500 mm^3.
# [5] = tested on: organoids derived from ovarian cancer tissue; assay: Impact of pH on viability of ovarian cancer organoids treated with cannabis extracts; assay type: cell-based; settings: 10 μg/mL; pH 8
# Description: In this set of experiments, organoids were derived from ovarian cancer tissue.
# [6] = tested on: patient derived endometrial cancer organoids; assay: Patient-derived endometrial cancer organoid viability: chemotherapeutic agent alone or with IC50 dose of cannabis extract
# Protocol: To perform these experiments, we used cells from patient 4 (see, e.g., FIGS. 7A and 7C) to test grade 2 endometrial cancer and cells from patient 12 (see, e.g., FIGS. 7B-7D) to test grade 3 endometrial cancer. […] Methods concerning producing organoids from human tissue samples are provided in the Methods section at the end of this document.
# as §1, §2
# [7] = tested on: patient derived endometrial cancer tumors; assay: Patient-derived xenograft mice: tumor volume with paclitaxel alone or combined with cannabis extract; assay type: in vivo
# Protocol: as §3
# [8] = tested on: patient derived organoids; assay type: cell-based, human; settings: % of cells that died compared to control; organoids of the chemoresistant patient
# Protocol: In addition to the agents listed above, several other drugs were tested to see if they influenced organoid growth. In this case, results are shown as the % of cells that died compared to control. […] This is consistent with the patient's actual lack of response to treatment with paclitaxel.
# [9] = tested on: organoids from the patient's endometrial cancer; assay: Response of organoids crafted from the patient's endometrial cancer to alternative chemotherapies and BSHE; assay type: cell-based, human; settings: chemoresistant stage IV endometrial cancer patient
# Description: See, Tables 3 and 4, below.
# [10] = read-out: IC50s for Patient 4 Organoids (Grade 2 Endometrial Cancer)
# [11] = read-out: IC50s for Patient 12 Organoids (Grade 3 Endometrial Cancer)
# [12] = day 14, 6 doses total of about 30 mg/kg
# P-glycoprotein, sequence (P08183 whole entry): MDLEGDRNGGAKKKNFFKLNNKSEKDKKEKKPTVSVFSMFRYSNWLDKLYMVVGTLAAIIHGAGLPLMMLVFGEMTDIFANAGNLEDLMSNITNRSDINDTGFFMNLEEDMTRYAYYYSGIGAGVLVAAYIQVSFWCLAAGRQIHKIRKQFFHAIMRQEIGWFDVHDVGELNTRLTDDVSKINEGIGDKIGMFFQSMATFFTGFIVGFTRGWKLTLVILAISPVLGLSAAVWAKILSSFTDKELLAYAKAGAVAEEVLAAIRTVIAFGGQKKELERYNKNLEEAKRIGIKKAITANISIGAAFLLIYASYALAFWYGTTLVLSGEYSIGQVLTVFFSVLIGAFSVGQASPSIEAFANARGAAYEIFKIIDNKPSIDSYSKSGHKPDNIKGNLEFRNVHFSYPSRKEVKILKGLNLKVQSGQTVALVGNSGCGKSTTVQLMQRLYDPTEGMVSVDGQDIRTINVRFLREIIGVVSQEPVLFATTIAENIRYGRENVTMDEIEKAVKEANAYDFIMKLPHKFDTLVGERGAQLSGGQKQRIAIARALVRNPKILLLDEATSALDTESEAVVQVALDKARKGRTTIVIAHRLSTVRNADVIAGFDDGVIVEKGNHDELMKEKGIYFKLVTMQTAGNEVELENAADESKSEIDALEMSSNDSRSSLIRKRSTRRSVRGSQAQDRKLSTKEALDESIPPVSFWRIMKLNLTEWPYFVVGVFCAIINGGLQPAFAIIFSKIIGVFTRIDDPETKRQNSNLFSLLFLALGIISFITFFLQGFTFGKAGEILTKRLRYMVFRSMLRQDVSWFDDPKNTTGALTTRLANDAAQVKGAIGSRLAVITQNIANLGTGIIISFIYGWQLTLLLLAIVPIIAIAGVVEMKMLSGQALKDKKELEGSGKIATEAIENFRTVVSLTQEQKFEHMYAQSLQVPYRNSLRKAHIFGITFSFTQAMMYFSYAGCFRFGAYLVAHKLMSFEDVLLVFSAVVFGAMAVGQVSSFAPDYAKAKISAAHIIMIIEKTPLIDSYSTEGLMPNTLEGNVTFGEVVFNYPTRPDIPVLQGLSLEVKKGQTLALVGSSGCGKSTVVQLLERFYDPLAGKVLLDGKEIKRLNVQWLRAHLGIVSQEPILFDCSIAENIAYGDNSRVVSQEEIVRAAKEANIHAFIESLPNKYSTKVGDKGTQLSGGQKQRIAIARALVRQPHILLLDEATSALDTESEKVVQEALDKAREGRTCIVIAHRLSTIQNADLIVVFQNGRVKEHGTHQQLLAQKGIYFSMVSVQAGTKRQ
compound,measurement,setting,value
"C=C(C)[C@@H]1CCC(C)=C[C@H]1c1c(O)cc(CCCCC)cc1O [CBD isolate, cannabidiol]",P-glycoprotein-mediated drug transport,P-glycoprotein,significantly inhibits
same,effect on peak plasma drug concentrations,[1]; coadministration of ketoconazole (CYP3A4 inhibitor),nearly doubled
same,effect on peak plasma concentrations,[1]; coadministration of rifampicin (CYP3A4 inducer),significantly reduced
same,increase of Cmax,[1]; coadministration with high fat food,up to 5 fold
same,Tmax,[1]; delivery via nasal mucosa,approximately 10 minutes
same,maximum plasma concentration (time),[1]; oral,2.5 to 5 h
same,"maximum plasma concentration (time), delayed in some individuals",[1]; oral,up to 6 hours
same,serum bioavailability,"[1]; orally delivered, consumed with CBDA",increase substantially
same,maximum plasma concentration (time),[1]; oromucosal or sublingual delivery,1.6 h
same,bioavailability,[1]; rectal suppository delivery,51-60%
same,dose with clinically significant drug interactions,[2]; current literature,20 mg/kg/day
same,doses established as well tolerated,"[2]; humans, chronic use","up to 1,500 mg/day"
same,dose with meaningful interactions with Warfarin,[2]; published case study,10 mg/kg
same,inhibition of CYP2C19 enzymes,CYP2C19,potent inhibitor
same,IC50,[3]; [10],3.09 µg/mL
same,IC50,[3]; [11],2.92 µg/mL
same,IC50,[3]; read-out: dose at which 50% viability of organoids was obtained,~3 µg/mL
same,viable organoids / response in words,"[3]; grade 1, 10 μg/mL",does not show complete response
same,response of organoids,"[3]; grade 1 lower responder patient, 15 and 20 μg/mL",complete response
same,viable organoids in words,[3]; grade 2,virtually zero
same,viable organoids in words,[3]; grade 3,virtually zero
same,dose at which 50% viability of organoids was obtained,[3]; grade 3 representative sample (FIG. 7),about 3 μg/mL
same,decrease in average tumor volume vs day 0,"[4]; about 30 mg/kg, 3 times/week",not as responsive
same,decrease in average tumor volume compared to starting size,[4]; [12],less than 50%
same,efficacy compared to native pH,[5],virtually no change
same,decrease in viable organoids compared to carboplatin alone,"[6]; patient 4, IC50 dose of extract + 100 μM/mL carboplatin",about 32%
same,decrease in the % of viable organoids when 4 nM/mL paclitaxel is combined with extract,"[6]; patient 12, grade 3, IC50 dose of extract + 4 nM/mL paclitaxel",up to 19%
"C=C(C)[C@@H]1CCC(C)=C[C@H]1c1c(O)cc(CCCCC)c(C(=O)O)c1O [CBDA, cannabidiolic acid]",bioavailability,[1]; consumed with other cannabinoids in FSHE vs equivalent dose of isolated CBDA,increased bioavailability
same,response of organoids,[3]; 10 and 15 μg/mL,a strong response was not seen in all patient derived organoids
same,IC50,[3]; [10],12.1 µg/mL
same,IC50,[3]; [11],15.8 µg/mL
same,formation of viable organoids,"[3]; all patients, dosing up to 50 μg/mL",~0%
same,effect on organoid viability,[3]; lower doses,did not affect organoid viability
same,increase in average tumor volume vs day 0,"[4]; day 7, 3 doses of about 30 mg/kg, injected 3 times/week",greater than 30%
same,overall decrease in average tumor volume in three days,"[4]; day 7 to day 10, about 30 mg/kg, 3 times/week",greater than 60%
same,decrease in average tumor volume vs day 0,"[4]; about 30 mg/kg, 3 times/week",greater than 30%
same,decrease in average tumor volume compared to starting size,[4]; [12],70%
same,decrease in average tumor volume compared to starting size,"[4]; day 21, 9 doses total of about 30 mg/kg",~100%
same,increase in average tumor volume,"[7]; a few days before day 14, extract 30 mg/kg + paclitaxel 10 mg/kg",~40%
same,decrease in average tumor volume compared to paclitaxel alone,"[7]; day 14, extract 30 mg/kg + paclitaxel 10 mg/kg",~20%
CC(=O)O[C@H]1C(=O)[C@@]2(C)[C@H]([C@H](OC(=O)c3ccccc3)[C@]3(O)C[C@H](OC(=O)[C@H](O)[C@@H](NC(=O)c4ccccc4)c4ccccc4)C(C)=C1C3(C)C)[C@]1(OC(C)=O)CO[C@@H]1C[C@@H]2O [Paclitaxel],% Cell Death,[8],39%
same,decrease in tumor volume,"[7]; paclitaxel alone 10 mg/kg, day 10",~37%
same,further change of tumor volume,"[7]; paclitaxel alone 10 mg/kg, day 10 to day 21",does not really change
same,organoid viability,"[6]; human, 9 days, 4 nM/mL",about 30%
same,improvement of 20 nM/mL over the lower dose (4 nM/mL),"[6]; patient 4, grade 2, paclitaxel alone",about 12%
same,improvement in reducing % viable organoids between 4 nM/mL and 20 nM/mL,"[6]; patient 12, grade 3, paclitaxel alone",~5%
gemcitabine/capecitabine [GemCap],response of the patient's organoids,[9],partial response
